Data published in article PMC10420963, “Exploring Novel Drug Combinations: The Therapeutic Potential of Selanyl Derivatives for Leishmania Treatment” (Molecules, 2023).
Read-outs that look alike come from different tables or passages of the source.

Legend:
[1] = system: L. infantum promastigotes; assay: Leishmanicidal activity against L. infantum promastigotes (MTT assay); format: cell-based, Leishmania infantum
Protocol: (§1) Promastigotes. L. major (clone VI, MHOM/IL/80) and L. infantum (clone, BCN-150) parasites were cultured at 26 °C under continuous shaking in M199 1× medium (Sigma, St. Louis, MO, USA) supplemented with heat-inactivated fetal bovine serum (FBS), 25 mM HEPES (pH 7), 0.1 mM adenine, 0.0005% (w/v) haemin, […], 0.0005% (w/v) biotin, 100 IU/mL penicillin and […]. For each experiment, the culture medium was changed everyday in order to achieve parasite in exponential growth phase.
(§2) In order to determine the leishmanicidal activity of the compounds obtained in this study, promastigotes of L. major and L. infantum strains were seeded in 96-well plates (3 ×·10^6 parasite/mL) in exponential growth phase at increasing concentrations (1–500 μM) of the compounds and maintained at 26 °C. After 48 h of incubation, the IC50 was determined by MTT assay. The absorbance was measured in a MultiskanEX photometric plate reader for microplates at 540 nm. Data were obtained from three independent experiments performed in triplicate.

L. major promastigotes = assay: Leishmanicidal activity against L. major promastigotes (MTT assay); format: cell-based, Leishmania major; conditions: for IC50: Leishmania major, L. major promastigotes, 48 h incubation, MTT
Protocol: as §1, §2

[2] = Cytotoxicity in PMA-differentiated THP-1 macrophages (MTT assay); format: cell-based; conditions: human, pH 7.2, 48 h of treatment, read-out: THP-1 Cells CC50
Protocol: Human monocytic leukemia cell line THP-1 cells were cultured in RMPI 1640 medium (Gibco, Leiden, The Netherlands) supplemented with 10% heat-inactivated FBS, 5% penicillin/streptomycin, 1 mM HEPES, 2 mM glutamine at pH 7.2 at 36 °C and 5% CO2.
THP-1 cells were seeded at a concentration of 8 × 10^5 cells/mL in 96-well plates and incubated for 24 h with phorbol 12-myristate 13-acetate (PMA) (10 ng/mL) supplemented RPMI 1640 (Gibco, Leiden, The Netherlands). After 24 h, the culture medium was removed, and the cells were treated with the synthesized compounds at different concentrations ranging from 1–500 μM at 37 °C and 5% CO2. After this time, the MTT assay was performed. The cytotoxic concentration values (CC50) were obtained by fitting the data to a sigmoid dose-inhibition curve using GraphPad Prism 7.0 software (GraphPad Software Inc., San Diego, CA, USA). MIL and PMN were used as reference drugs for comparison.

[3] = system: L. infantum promastigotes; assay: Drug combination (FICI) assay on L. infantum promastigotes; format: cell-based, Leishmania infantum; conditions: for ƩFICI50: 48 h; for ƩFICI: combined with the reference drugs AMB, MIL, and PMN (bound for all three)
Protocol: To determine the nature of the interaction, it is crucial to choose the appropriate doses. Thus, the evaluation of the combination was carried out by a dose–response linear dilution experiment, for which the IC50 value of each substance alone was determined and multiplied by 0.2×, 0.4×, 0.6×, 0.8×, 1×, 1.2×, 1.4×, 1.6×, 1.8×, and 2× times, in order to obtain the different dilutions. […] Compound A6 stood out in this experiment, with synergistic interactions in combination with MIL (ƩFICI = 0.44), borderline synergistic interaction combined with PMN (ƩFICI = 0.54), but without interaction when combined with AMB (ƩFICI = 0.70).
The fractional inhibitory concentration index (FICI) was used to describe the interaction between the lead compounds A4–A6 and A8 with AmB, PMN and MIL. The compounds were studied in vitro against L. infantum promastigotes after 48 h of treatment. For this purpose, different increasing concentration ratios (0.2×, 0.4×, 0.6×, 0.8×, 1×, 1.2×, 1.4×, 1.6×, 1.8× and 2× times the IC50 of the compounds) were established. Finally, synergy was defined as FICI < 0.5, non-interaction as 0.5 < FICI < 4, and antagonism as FICI > 4. FICI values were obtained from four independent experiments.

[4] = Leishmania infantum, 48 h, L. infantum promastigotes, 48 h incubation, MTT, compound alone, read-out: IC50

## CCCCCCC(=O)[Se]CC(=O)OC [C4, Methyl 2-(heptanoylselanyl)acetate]
[1]; Leishmania infantum, 48 h
  IC50: 116 µM

## COC(=O)CSC(=O)C1CC1 [D5, Methyl 2-((cyclopropanecarbonyl)thio)acetate]
L. major promastigotes
  IC50: 81.8 µM
[1]; [4]
  IC50: 68.7 µM

## O=C(O)C[Se]C(=O)C1CC1 [A5, 2-((cyclopropanecarbonyl)selanyl)acetic acid]
L. major promastigotes
  IC50: 113 µM
[1]; [4]
  IC50: < 40 µM
[2]
  CC50 at 48 h: 211 ± 9.3 µM
[3]; combination with AmB
  Effect: Non interaction (non-interaction as 0.5 < FICI < 4)
  ƩFICI50: 0.70
[3]; combination with MIL
  Effect: Non interaction (non-interaction as 0.5 < FICI < 4)
  ƩFICI50: 0.98
[3]; combination with PMN
  Effect: Non interaction (non-interaction as 0.5 < FICI < 4)
  ƩFICI50: 0.61
[3]
  ƩFICI: > 0.60

## O=C(O)CSC(=O)C1CC1 [B5, 2-((cyclopropanecarbonyl)thio)acetic acid]
[1]; [4]
  IC50: 87.6 µM

## O=C(O)C[Se]C(=O)C1CCC1 [A6, 2-((cyclobutanecarbonyl)selanyl)acetic acid]
L. major promastigotes; L. major, from SI values
  times more selective than MIL: 15
  times more selective than PMN: 5
[1]; L. infantum, from SI values
  fold more selective than MIL: 28 fold
  fold more selective than PMN: 5 fold
[2]
  CC50 at 48 h: 178 ± 10.2 µM
[3]; combination with AmB
  Effect: Non interaction (non-interaction as 0.5 < FICI < 4)
  ƩFICI50: 0.70
[3]; combination with MIL
  Effect: Synergy (synergy was defined as FICI < 0.5)
  ƩFICI50: 0.44
[3]; combination with PMN
  Effect: Non interaction (non-interaction as 0.5 < FICI < 4)
  ƩFICI50: 0.54

## CCCCCCC(=O)SCC(=O)OC [D4, Methyl 2-(heptanoylthio)acetate]
L. major promastigotes
  IC50: 87.3 µM
[1]; [4]
  IC50: 79.2 µM

## COC(=O)CSC(=O)C1CCC1 [D6, Methyl 2-((cyclobutanecarbonyl)thio)acetate]
L. major promastigotes
  IC50: 83.4 µM
[1]; [4]
  IC50: 95.3 µM

## CCCCCCC(=O)[Se]CC(=O)O [A4, 2-(heptanoylselanyl)acetic acid]
[1]; [4]
  IC50: < 40 µM
[2]
  CC50 at 48 h: 173 ± 8.6 µM
[3]; combination with AmB
  Effect: Non interaction (non-interaction as 0.5 < FICI < 4)
  ƩFICI50: 0.71
[3]; combination with MIL
  Effect: Non interaction (non-interaction as 0.5 < FICI < 4)
  ƩFICI50: 0.68
[3]; combination with PMN
  Effect: Non interaction (non-interaction as 0.5 < FICI < 4)
  ƩFICI50: 0.68
[3]
  ƩFICI: > 0.60

## CCCCCCCCCCCCCCCCOP(=O)([O-])OCC[N+](C)(C)C [MIL, miltefosine, reference compound]
[1]; [4]
  IC50: 31.9 µM
[2]
  CC50 at 48 h: 13.3 ± 2.8 µM

## NC[C@@H]1O[C@H](O[C@H]2[C@@H](O)[C@H](O[C@@H]3[C@@H](O)[C@H](N)C[C@H](N)[C@H]3O[C@H]3O[C@H](CO)[C@@H](O)[C@H](O)[C@H]3N)O[C@@H]2CO)[C@H](N)[C@@H](O)[C@@H]1O [PMN, paromomycin, reference compound]
[2]
  CC50 at 48 h: 39 ± 13.7 µM

## O=C(O)C[Se]C(=O)C1CCCCC1 [A8, 2-((cyclohexanecarbonyl)selanyl)acetic acid]
[1]; L. infantum promastigotes, 48 h incubation, MTT, compound alone, read-out: IC50
  IC50: 39.9 µM
[1]; [4]
  IC50: < 40 µM
[2]
  CC50 at 48 h: 147 ± 12.5 µM
[3]; combination with AmB
  Effect: Non interaction (non-interaction as 0.5 < FICI < 4)
  ƩFICI50: 0.52
[3]; combination with MIL
  Effect: Synergy (synergy was defined as FICI < 0.5)
  ƩFICI50: 0.40
[3]; combination with PMN
  Effect: Non interaction (non-interaction as 0.5 < FICI < 4)
  ƩFICI50: 0.52
